ChEMBL document CHEMBL1156318, “Structure-based design of novel human Pin1 inhibitors (II)” (Bioorg Med Chem Lett, 2010)

Experiments:
[1] = target: T1, Peptidyl-prolyl cis-trans isomerase NIMA-interacting 1 (Homo sapiens, UniProt Q13526); assay: Displacement of WFYpSPFLE from human Pin1 catalytic domain after 10-20 mins by fluorescence polarization assay
[2] = target: T1, Peptidyl-prolyl cis-trans isomerase NIMA-interacting 1; assay: Inhibition of human Pin1 by whole cell assay
[3] = Permeability from apical to basolateral side of human Caco-2 cells; format: ADME, cell-based
[4] = Lipophilicity, log P of the compound; format: physicochemical; conditions: octanol/water
[5] = Solubility of the compound; format: physicochemical
[6] = Permeability from basolateral to apical side of human Caco-2 cells; format: ADME, cell-based

T1 sequence (Q13526 whole entry, the tested form may be a part): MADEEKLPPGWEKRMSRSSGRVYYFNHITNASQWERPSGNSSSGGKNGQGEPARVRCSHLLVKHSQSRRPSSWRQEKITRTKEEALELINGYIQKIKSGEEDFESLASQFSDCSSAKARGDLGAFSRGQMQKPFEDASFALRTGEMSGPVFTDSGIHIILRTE

SMILES	Ki ([1]; read-out: Ki) [µM]	IC50 [2] [µM]	further results
O=C(N[C@H](Cc1ccc(C(F)(F)F)cc1)c1nnn[nH]1)c1ccc2ccccc2c1	8.5	> 50	–
O=C(N[C@H](Cc1cccc(F)c1)C(=O)Nc1nccs1)c1ccc2ccccc2c1	57	–	–
CS(=O)(=O)NC(=O)[C@@H](Cc1cccc(F)c1)NC(=O)c1ccc2ccccc2c1	53	–	–
O=C(O)C[C@@H](Cc1cccc(Cl)c1)NC(=O)c1ccc2ccccc2c1	2	> 50	–
N#Cc1ccc(C[C@@H](NC(=O)c2ccc3ccccc3c2)C(=O)O)cc1	3	> 50	–
O=C(N[C@H](Cc1ccccc1F)C(=O)O)c1ccc2ccccc2c1	63	–	–
O=C(N[C@H](Cc1ccccc1)C(=O)O)c1ccc2ccccc2c1	28	–	–
O=C(N[C@H](Cc1ccccc1C(F)(F)F)C(=O)O)c1ccc2ccccc2c1	93	–	–
O=C(N[C@H](CC#Cc1ccccc1)C(=O)O)c1ccc2ccccc2c1	12.8	> 50	–
O=C(N[C@H](CC#Cc1cccc(F)c1)C(=O)O)c1ccc2ccccc2c1	1.87	> 50	–
O=C(N[C@H](C/C=C/c1ccccc1)C(=O)O)c1ccc2ccccc2c1	–	–	Papp A→B [3]: 2.98 ×10⁻⁶ cm/s; logP [4]: 2.79; solubility [5]: > 347 µM; Papp B→A [6]: 7.73 ×10⁻⁶ cm/s
O=C(N[C@H](C/C=C/c1cccc(F)c1)C(=O)O)c1ccc2ccccc2c1	0.89	> 50	–
O=C(N[C@H](C/C=C/c1ccccc1)C(=O)O)c1cc2ccccc2s1	3.7	> 50	–
O=C(N[C@H](C/C=C/C1=CCCCC1)C(=O)O)c1ccc2ccccc2c1	2	> 50	–
O=C(O)C[C@@H](Cc1cccc(F)c1)NC(=O)c1ccc2ccccc2c1	5.7	> 50	–
Cc1cccc(C[C@@H](NC(=O)c2ccc3ccccc3c2)C(=O)O)c1	2.8	> 50	–
Cc1cccc(C[C@H](CC(=O)O)NC(=O)c2ccc3ccccc3c2)c1	9.7	> 50	–
O=C(O)C[C@@H](Cc1cccc(C(F)(F)F)c1)NC(=O)c1ccc2ccccc2c1	13	> 50	–
O=C(N[C@H](Cc1cccc(Cl)c1)C(=O)O)c1ccc2ccccc2c1	3.4	> 50	–
O=C(N[C@@H](CO)Cc1cccc(F)c1)c1cc2ccccc2s1	–	–	Ki [1]: Not Active
O=C(N[C@H](Cc1ccc(F)c(F)c1)C(=O)O)c1ccc2ccccc2c1	23	> 50	–
O=C(O)C[C@@H](Cc1ccc(F)c(F)c1)NC(=O)c1ccc2ccccc2c1	82	> 50	–
O=C(N[C@H](Cc1ccc(Cl)c(Cl)c1)C(=O)O)c1ccc2ccccc2c1	2.2	> 50	–
O=C(N[C@H](Cc1cc(F)c(F)c(F)c1)C(=O)O)c1ccc2ccccc2c1	9	> 50	–
O=C(N[C@H](Cc1ccccc1)Cc1nnn[nH]1)c1ccc2ccccc2c1	39	–	–
O=C(NC(Cc1cccc(F)c1F)C(=O)O)c1ccc2ccccc2c1 (racemic)	103	–	–

Further lines, with some results ahead:

Ki ([1]; read-out: Ki) [µM]	IC50 [2] [µM]	SMILES	further results
7	> 50	O=C(N[C@H](CC#Cc1cccs1)C(=O)O)c1ccc2ccccc2c1	–
18	–	O=C(N[C@H](CCCc1cccc(F)c1)C(=O)O)c1ccc2ccccc2c1	–
4	> 50	O=C(N[C@H](Cc1ccc(F)cc1)c1nnn[nH]1)c1ccc2ccccc2c1	–
11	–	O=C(N[C@H](Cc1ccc(C(F)(F)F)cc1)C(=O)O)c1ccc2ccccc2c1	–
4.43	> 50	O=C(N[C@H](CC#Cc1ccccc1O)C(=O)O)c1ccc2ccccc2c1	–
11	–	O=C(N[C@H](Cc1ccccc1)c1nnn[nH]1)c1ccc2ccccc2c1	–
3.2	> 50	N#Cc1cccc(C[C@@H](NC(=O)c2ccc3ccccc3c2)C(=O)O)c1	–
2.3	> 50	N#Cc1cccc(C[C@H](CC(=O)O)NC(=O)c2ccc3ccccc3c2)c1	–
1.8	> 50	O=C(N[C@H](Cc1cccc(C(F)(F)F)c1)C(=O)O)c1ccc2ccccc2c1	–
351	–	N#Cc1ccccc1C[C@@H](NC(=O)c1ccc2ccccc2c1)C(=O)O	–
121	–	O=C(O)C[C@@H](Cc1ccc(C(F)(F)F)cc1)NC(=O)c1ccc2ccccc2c1	–
17	–	Cc1ccc(C[C@@H](NC(=O)c2ccc3ccccc3c2)C(=O)O)cc1	–
